# Laboratory results published in patent publication US20240317777A1, “NOVEL MACROCYCLIC AMINOPYRAZOLE COMPOUNDS AS CDK2 INHIBITORS” (Accutar Biotechnology Inc., priority 2023, published 2024).
# Like-named read-outs stand apart in the source and are kept apart here.
# What was measured:
# CDK6-CYCLIN D3 = CDK6-CYCLIN D3 (Homo sapiens, UniProt Q00534); test: CDK protein kinase inhibition by ADP-Glo assay, CDK6-CYCLIN D3; type: biochemical; conditions: for IC50: ADP-Glo, 1000 μM ATP, read-out: CDK6-CYCLIND3, IC50; for CDK2 Fold selectivity, CDK6: CDK2 versus CDK6
# Chain of CDK6-CYCLIN D3 (Q00534 whole entry): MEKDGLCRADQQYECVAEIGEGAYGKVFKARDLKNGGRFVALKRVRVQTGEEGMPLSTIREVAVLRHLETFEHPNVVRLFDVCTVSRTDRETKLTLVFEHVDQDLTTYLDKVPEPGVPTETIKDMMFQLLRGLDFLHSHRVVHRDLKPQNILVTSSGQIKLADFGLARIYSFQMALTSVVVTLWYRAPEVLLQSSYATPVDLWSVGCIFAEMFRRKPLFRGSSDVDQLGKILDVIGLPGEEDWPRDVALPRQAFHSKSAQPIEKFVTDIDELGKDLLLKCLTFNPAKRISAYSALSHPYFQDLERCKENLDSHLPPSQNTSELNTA
# Chain of CDK6-CYCLIN D3 (P30281 whole entry partner): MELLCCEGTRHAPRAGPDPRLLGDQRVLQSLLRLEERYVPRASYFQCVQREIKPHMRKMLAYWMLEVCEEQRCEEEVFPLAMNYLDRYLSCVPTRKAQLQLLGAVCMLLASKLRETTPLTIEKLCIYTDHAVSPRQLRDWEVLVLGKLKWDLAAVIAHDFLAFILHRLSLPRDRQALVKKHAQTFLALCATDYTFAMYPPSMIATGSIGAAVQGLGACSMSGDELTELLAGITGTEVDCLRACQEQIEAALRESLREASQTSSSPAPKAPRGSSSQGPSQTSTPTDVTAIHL
# Procedure, shortened: (§1)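 Human CDK/cyclin complexes phosphorylated peptide substrates at 22° C in 100 mM HEPES pH 7.5 with 5 mM MgCl2, 1 mM DTT, 0.1% BSA, 0.01% Triton X-100 and 1000 μM ATP (1% DMSO). ADP formed was detected by ADP-Glo luminescence.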
# CDK4-CYCLIN D1 = CDK4-CYCLIN D1 (Homo sapiens, UniProt P11802); test: CDK protein kinase inhibition by ADP-Glo assay, CDK4-CYCLIN D1; type: biochemical; conditions: for IC50: ADP-Glo, 1000 μM ATP, read-out: CDK4-CYCLIND1, IC50; for CDK2 Fold selectivity, CDK4: CDK2 versus CDK4
# Chain of CDK4-CYCLIN D1 (P11802 whole entry): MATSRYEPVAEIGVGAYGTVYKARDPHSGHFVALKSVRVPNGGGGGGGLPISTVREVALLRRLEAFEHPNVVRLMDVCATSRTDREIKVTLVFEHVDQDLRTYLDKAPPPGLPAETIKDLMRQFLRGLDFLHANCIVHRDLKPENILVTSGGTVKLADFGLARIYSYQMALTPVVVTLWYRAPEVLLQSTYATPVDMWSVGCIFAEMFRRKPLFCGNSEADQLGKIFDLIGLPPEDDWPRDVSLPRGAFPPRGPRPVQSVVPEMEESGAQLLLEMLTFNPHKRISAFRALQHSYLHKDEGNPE
# Chain of CDK4-CYCLIN D1 (P24385 whole entry partner): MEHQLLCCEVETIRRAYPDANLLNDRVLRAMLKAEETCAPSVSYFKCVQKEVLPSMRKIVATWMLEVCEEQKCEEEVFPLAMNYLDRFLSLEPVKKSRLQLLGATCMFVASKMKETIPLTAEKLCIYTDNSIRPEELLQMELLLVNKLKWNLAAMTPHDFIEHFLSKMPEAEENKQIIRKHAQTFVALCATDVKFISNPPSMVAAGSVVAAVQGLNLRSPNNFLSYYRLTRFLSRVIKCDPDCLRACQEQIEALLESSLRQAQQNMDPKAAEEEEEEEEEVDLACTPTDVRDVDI
# Procedure, shortened: as §1
# CDK2-CYCLIN E1 = CDK2-CYCLIN E1 (Homo sapiens, UniProt P24941); test: CDK protein kinase inhibition by ADP-Glo assay, CDK2-CYCLIN E1; type: biochemical; conditions: ADP-Glo, 1000 μM ATP, read-out: CDK2-CYCLINE, IC50
# Procedure, shortened: as §1
# [1] = test system: Phospho-Rb (Ser807/811) in OVCAR3 cells; test: Phospho-Rb expression inhibition in OVCAR3 cells quantified by In Cell Western; type: cell-based; conditions: Homo sapiens, OVCAR-3, 24 hours, read-out: OVCAR-3 pRb IC50
# Procedure, shortened: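 In-cell western: after 24 h compound exposure at 37° C, fixed OVCAR3 cells co-stained for pRb Ser807/811 (800 nm channel) and total Rb (680 nm channel), imaged by LI-COR Odyssey.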
# CDK1-CYCLIN B = CDK1-CYCLIN B (Homo sapiens, UniProt P06493); test: CDK protein kinase inhibition by ADP-Glo assay, CDK1-CYCLIN B; type: biochemical; conditions: for IC50: ADP-Glo, 1000 μM ATP, read-out: CDK1-CYCLINB, IC50; for CDK2 Fold selectivity, CDK1: CDK2 versus CDK1
# Chain of CDK1-CYCLIN B (P06493 whole entry): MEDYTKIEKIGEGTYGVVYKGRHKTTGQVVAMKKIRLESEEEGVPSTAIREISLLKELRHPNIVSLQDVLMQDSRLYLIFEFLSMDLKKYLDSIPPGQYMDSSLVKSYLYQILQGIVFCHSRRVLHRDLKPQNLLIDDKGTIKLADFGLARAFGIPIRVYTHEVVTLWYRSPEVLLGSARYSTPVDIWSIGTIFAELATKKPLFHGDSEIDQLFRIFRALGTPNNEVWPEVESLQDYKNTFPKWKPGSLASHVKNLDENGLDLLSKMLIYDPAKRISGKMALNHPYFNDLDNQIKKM
# Chain of CDK1-CYCLIN B (P14635 whole entry partner): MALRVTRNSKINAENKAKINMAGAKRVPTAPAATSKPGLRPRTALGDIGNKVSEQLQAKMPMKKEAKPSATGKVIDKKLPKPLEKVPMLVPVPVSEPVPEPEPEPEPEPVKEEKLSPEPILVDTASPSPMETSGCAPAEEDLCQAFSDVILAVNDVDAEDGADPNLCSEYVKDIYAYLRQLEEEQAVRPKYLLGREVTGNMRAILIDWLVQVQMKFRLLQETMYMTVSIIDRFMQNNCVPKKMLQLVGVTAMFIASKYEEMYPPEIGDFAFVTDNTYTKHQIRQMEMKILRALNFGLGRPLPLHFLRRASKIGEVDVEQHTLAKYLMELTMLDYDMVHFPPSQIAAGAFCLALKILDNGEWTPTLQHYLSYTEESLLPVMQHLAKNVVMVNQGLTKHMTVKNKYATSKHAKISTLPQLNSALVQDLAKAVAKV
# Procedure, shortened: as §1
# CDK9-CYCLIN T1 = CDK9-CYCLIN T1 (Homo sapiens, UniProt P50750); test: CDK protein kinase inhibition by ADP-Glo assay, CDK9-CYCLIN T1; type: biochemical; conditions: for IC50: ADP-Glo, 1000 μM ATP, read-out: CDK9-CYCLINT1, IC50; for CDK2 Fold selectivity, CDK9: CDK2 versus CDK9
# Chain of CDK9-CYCLIN T1 (P50750 whole entry): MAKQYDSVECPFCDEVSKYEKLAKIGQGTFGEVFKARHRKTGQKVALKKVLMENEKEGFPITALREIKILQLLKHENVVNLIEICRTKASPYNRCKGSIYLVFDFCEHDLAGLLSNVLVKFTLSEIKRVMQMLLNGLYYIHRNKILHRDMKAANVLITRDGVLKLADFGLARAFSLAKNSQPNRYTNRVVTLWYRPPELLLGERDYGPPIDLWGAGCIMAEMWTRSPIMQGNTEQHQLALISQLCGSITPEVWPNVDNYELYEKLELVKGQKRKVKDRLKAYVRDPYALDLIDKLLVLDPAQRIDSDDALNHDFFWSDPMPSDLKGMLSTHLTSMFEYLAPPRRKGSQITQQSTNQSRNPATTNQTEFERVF
# Chain of CDK9-CYCLIN T1 (O60563 whole entry partner): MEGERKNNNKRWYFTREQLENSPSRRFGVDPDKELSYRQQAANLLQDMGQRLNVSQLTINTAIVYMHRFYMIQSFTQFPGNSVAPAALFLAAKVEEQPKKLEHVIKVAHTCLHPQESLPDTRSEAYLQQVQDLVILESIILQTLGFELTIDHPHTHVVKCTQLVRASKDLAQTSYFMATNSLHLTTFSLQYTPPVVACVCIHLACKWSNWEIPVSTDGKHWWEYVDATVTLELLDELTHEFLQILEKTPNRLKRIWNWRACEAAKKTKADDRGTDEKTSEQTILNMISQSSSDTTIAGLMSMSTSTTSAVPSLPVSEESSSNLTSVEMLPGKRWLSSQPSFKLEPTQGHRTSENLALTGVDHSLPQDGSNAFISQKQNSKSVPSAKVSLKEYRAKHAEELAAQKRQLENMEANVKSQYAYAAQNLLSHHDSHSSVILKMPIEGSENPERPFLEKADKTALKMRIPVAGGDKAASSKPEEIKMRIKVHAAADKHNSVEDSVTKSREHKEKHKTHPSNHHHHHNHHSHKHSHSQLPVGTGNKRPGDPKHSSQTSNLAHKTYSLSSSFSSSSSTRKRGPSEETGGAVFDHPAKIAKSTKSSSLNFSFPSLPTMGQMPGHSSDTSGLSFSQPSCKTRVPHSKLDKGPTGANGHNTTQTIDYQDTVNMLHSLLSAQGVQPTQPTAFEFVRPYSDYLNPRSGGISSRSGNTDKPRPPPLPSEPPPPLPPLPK
# Procedure, shortened: as §1
# [2] = test system: CCNE1-amplified OVCAR3 cells; test: Cell growth inhibition of CCNE1-amplified OVCAR3 cells (CellTiter-Glo); type: cell-based; conditions: Homo sapiens, OVCAR-3, 144 h, 6 days
# Procedure, shortened: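 Growth read-out was CellTiter-Glo luminescence, taken after 10 min at room temperature at the end of a 6-day compound exposure at 37 °C. Compounds were diluted from DMSO stocks across various concentrations.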
# CCNE1-normal SKOV3 cells = test: Cell growth inhibition of CCNE1-normal SKOV3 cells (CellTiter-Glo); type: cell-based; conditions: Homo sapiens, SK-OV-3, 144 h, 6 days
# Procedure, shortened: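 Growth was measured by CellTiter-Glo luminescence after 6 days' compound exposure at 37 °C. Cells were plated one day before dosing at 1000 per well in medium with 10% FBS, and compounds were diluted from DMSO stocks.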
SMILES,IC50 [1],IC50 [2],IC50 (CDK6-CYCLIN D3; Table 21),"CDK2 Fold selectivity, CDK6 (CDK6-CYCLIN D3; Table 22)",IC50 (CDK4-CYCLIN D1; Table 21),"CDK2 Fold selectivity, CDK4 (CDK4-CYCLIN D1; Table 22)",IC50 (CDK2-CYCLIN E1; Table 21),IC50 (CDK1-CYCLIN B; Table 21),"CDK2 Fold selectivity, CDK1 (CDK1-CYCLIN B; Table 22)",IC50 (CDK9-CYCLIN T1; Table 21),"CDK2 Fold selectivity, CDK9 (CDK9-CYCLIN T1; Table 22)",IC50 (CDK6-CYCLIN D3; Table 25),"CDK2 Fold selectivity, CDK6 (CDK6-CYCLIN D3; Table 26)",IC50 (CDK4-CYCLIN D1; Table 25),"CDK2 Fold selectivity, CDK4 (CDK4-CYCLIN D1; Table 26)",IC50 (CDK2-CYCLIN E1; Table 25),IC50 (CDK1-CYCLIN B; Table 25),"CDK2 Fold selectivity, CDK1 (CDK1-CYCLIN B; Table 26)",IC50 (CDK9-CYCLIN T1; Table 25),IC50 (CCNE1-normal SKOV3 cells),other results
"C[C@H]1CC[C@H](C)Oc2cncc(c2)Nc2cc(n[nH]2)[C@H]2CC[C@H](C2)OC(=O)N1 [Compound 151, (1^1S,1^3R,6S,9S,Z)-6,9-dimethyl-2^1H-5,12-dioxa-3,10-diaza-4(3,5)-pyridina-2(3,5)-pyrazola-1(1,3)-cyclopentanacyclododecaphan-11-one]",2 to 10 nM,2 to 10 nM,50 to 100 nM,"D (D, >20 and ≤50)",50 to 100 nM,"D (D, >20 and ≤50)",≤ 10 nM,≤ 10 nM,"E (E, <20)",100 to 500 nM,"D (D, >20 and ≤50)",,,,,,,,,250 to 1250 nM,
"C[C@@H]1CC[C@H](C)Oc2cncc(c2)Nc2cc(n[nH]2)[C@H]2CC[C@H](C2)OC(=O)N1 [Compound 152, (1^1S,1^3R,6S,9R,Z)-6,9-dimethyl-2^1H-5,12-dioxa-3,10-diaza-4(3,5)-pyridina-2(3,5)-pyrazola-1(1,3)-cyclopentanacyclododecaphan-11-one]",2 to 10 nM,10 to 50 nM,50 to 100 nM,"E (E, <20)",50 to 100 nM,"D (D, >20 and ≤50)",≤ 10 nM,10 to 50 nM,"E (E, <20)",100 to 500 nM,"D (D, >20 and ≤50)",,,,,,,,,250 to 1250 nM,
"C[C@H]1CCCNC(=O)O[C@@H]2CC[C@@H](C2)c2cc([nH]n2)Nc2cnnc(c2)O1 [Compound 155, (1^1S,1^3R,6S,Z)-6-methyl-2^1H-5,12-dioxa-3,10-diaza-4(5,3)-pyridazina-2(3,5)-pyrazola-1(1,3)-cyclopentanacyclododecaphan-11-one]",10 to 50 nM,50 to 250 nM,,,,,,,,,,100 to 500 nM,"D (D, >20 and ≤50)",100 to 500 nM,"D (D, >20 and ≤50)",≤ 10 nM,10 to 50 nM,"E (E, <20)",> 500 nM,> 1250 nM,"CDK2 Fold selectivity, CDK9 (CDK9-CYCLIN T1; Table 26): B (B, >100 and ≤500)"
"O=C1NCCCO[C@@H](C(F)(F)F)c2cc(ccn2)Nc2cc(n[nH]2)[C@H]2CC[C@H](C2)O1 [Compound 161, (1^1S,1^3R,5R,Z)-5-(trifluoromethyl)-2^1H-6,12-dioxa-3,10-diaza-4(4,2)-pyridina-2(3,5)-pyrazola-1(1,3)-cyclopentanacyclododecaphan-11-one]",≤ 2 nM,≤ 2 nM,10 to 50 nM,"E (E, <20)",10 to 50 nM,"E (E, <20)",≤ 10 nM,≤ 10 nM,"E (E, <20)",10 to 50 nM,"E (E, <20)",,,,,,,,,50 to 250 nM,

# Now from value to compound, other results behind:
IC50 [1],IC50 [2],IC50 (CDK6-CYCLIN D3; Table 21),"CDK2 Fold selectivity, CDK6 (CDK6-CYCLIN D3; Table 22)",IC50 (CDK4-CYCLIN D1; Table 21),"CDK2 Fold selectivity, CDK4 (CDK4-CYCLIN D1; Table 22)",IC50 (CDK2-CYCLIN E1; Table 21),IC50 (CDK1-CYCLIN B; Table 21),"CDK2 Fold selectivity, CDK1 (CDK1-CYCLIN B; Table 22)",IC50 (CDK9-CYCLIN T1; Table 21),"CDK2 Fold selectivity, CDK9 (CDK9-CYCLIN T1; Table 22)",IC50 (CDK6-CYCLIN D3; Table 25),"CDK2 Fold selectivity, CDK6 (CDK6-CYCLIN D3; Table 26)",IC50 (CDK4-CYCLIN D1; Table 25),"CDK2 Fold selectivity, CDK4 (CDK4-CYCLIN D1; Table 26)",IC50 (CDK2-CYCLIN E1; Table 25),IC50 (CDK1-CYCLIN B; Table 25),"CDK2 Fold selectivity, CDK1 (CDK1-CYCLIN B; Table 26)",IC50 (CDK9-CYCLIN T1; Table 25),SMILES,IC50 (CCNE1-normal SKOV3 cells),other results
10 to 50 nM,10 to 50 nM,,,,,,,,,,,,,,,,,,"C[C@@H]1Oc2cncc(c2)Nc2cc(n[nH]2)[C@H]2CC[C@H](C2)OC(=O)N[C@H]2C[C@@H]1C2 [Compound 149, (1^1S,1^3R,7^1S,7^3R,6S,Z)-6-methyl-2^1H-5,10-dioxa-3,8-diaza-4(3,5)-pyridina-2(3,5)-pyrazola-1(1,3)-cyclopentana-7(1,3)-cyclobutanacyclodecaphan-9-one]",> 1250 nM,"IC50 (CDK6-CYCLIN D3; Table 23): > 500 nM; CDK2 Fold selectivity, CDK6 (CDK6-CYCLIN D3; Table 24): D (D, >20 and ≤50); IC50 (CDK4-CYCLIN D1; Table 23): 100 to 500 nM; CDK2 Fold selectivity, CDK4 (CDK4-CYCLIN D1; Table 24): E (E, <20); IC50 (CDK2-CYCLIN E1; Table 23): 10 to 50 nM; IC50 (CDK1-CYCLIN B; Table 23): 100 to 500 nM; CDK2 Fold selectivity, CDK1 (CDK1-CYCLIN B; Table 24): E (E, <20); IC50 (CDK9-CYCLIN T1; Table 23): > 500 nM; CDK2 Fold selectivity, CDK9 (CDK9-CYCLIN T1; Table 24): C (C, >50 and ≤100)"
2 to 10 nM,2 to 10 nM,50 to 100 nM,"D (D, >20 and ≤50)",100 to 500 nM,"D (D, >20 and ≤50)",≤ 10 nM,10 to 50 nM,"E (E, <20)",100 to 500 nM,"B (B, >100 and ≤500)",,,,,,,,,"C[C@@H]1Oc2cncc(c2)Nc2cc(n[nH]2)[C@H]2CC[C@H](C2)OC(=O)N[C@H]2C[C@H]1C2 [Compound 150, (1^1S,1^3R,7^1R,7^3S,6S,Z)-6-methyl-2^1H-5,10-dioxa-3,8-diaza-4(3,5)-pyridina-2(3,5)-pyrazola-1(1,3)-cyclopentana-7(1,3)-cyclobutanacyclodecaphan-9-one]",250 to 1250 nM,
10 to 50 nM,10 to 50 nM,100 to 500 nM,"D (D, >20 and ≤50)",100 to 500 nM,"D (D, >20 and ≤50)",≤ 10 nM,50 to 100 nM,"E (E, <20)",100 to 500 nM,"C (C, >50 and ≤100)",,,,,,,,,"C[C@H]1CCCNC(=O)O[C@@H]2CC[C@@H](C2)c2cc([nH]n2)Nc2cccc(c2)O1 [Compound 157, (1^1S,1^3R,6S,Z)-6-methyl-2^1H-5,12-dioxa-3,10-diaza-2(3,5)-pyrazola-4(1,3)-benzena-1(1,3)-cyclopentanacyclododecaphan-11-one]",250 to 1250 nM,
2 to 10 nM,10 to 50 nM,,,,,,,,,,10 to 50 nM,"D (D, >20 and ≤50)",50 to 100 nM,"C (C, >50 and ≤100)",≤ 10 nM,10 to 50 nM,"E (E, <20)",10 to 50 nM,"C[C@H]1CCCC(F)(F)c2cc(ccn2)Nc2cc(n[nH]2)[C@H]2CC[C@H](C2)OC(=O)N1 [Compound 166, (1^1S,1^3R,9S,Z)-5,5-difluoro-9-methyl-2^1H-12-oxa-3,10-diaza-4(4,2)-pyridina-2(3,5)-pyrazola-1(1,3)-cyclopentanacyclododecaphan-11-one]",250 to 1250 nM,"IC50 (CDK6-CYCLIN D3; Table 31): 100 to 500 nM; CDK2 Fold selectivity, CDK6 (CDK6-CYCLIN D3; Table 32): D (D, >20 and ≤50); IC50 (CDK4-CYCLIN D1; Table 31): 100 to 500 nM; CDK2 Fold selectivity, CDK4 (CDK4-CYCLIN D1; Table 32): D (D, >20 and ≤50); IC50 (CDK2-CYCLIN E1; Table 31): ≤ 10 nM; IC50 (CDK1-CYCLIN B; Table 31): 10 to 50 nM; CDK2 Fold selectivity, CDK1 (CDK1-CYCLIN B; Table 32): E (E, <20); IC50 (CDK9-CYCLIN T1; Table 31): 10 to 50 nM; CDK2 Fold selectivity, CDK9 (CDK9-CYCLIN T1; Table 26): D (D, >20 and ≤50); CDK2 Fold selectivity, CDK9 (CDK9-CYCLIN T1; Table 32): E (E, <20)"
≤ 2 nM,2 to 10 nM,,,,,,,,,,10 to 50 nM,"E (E, <20)",≤ 10 nM,"E (E, <20)",≤ 10 nM,≤ 10 nM,"E (E, <20)",≤ 10 nM,"O=C1NC2CC(/C=C/c3cc(ccn3)Nc3cc(n[nH]3)[C@H]3CC[C@H](C3)O1)C2 [Compound 172, (1^1S,1^3R,2^4Z,7^1R,7^3S,5E)-2^1H-10-oxa-3,8-diaza-4(4,2)-pyridina-2(3,5)-pyrazola-1(1,3)-cyclopentana-7(1,3)-cyclobutanacyclodecaphan-5-en-9-one]",10 to 50 nM,"CDK2 Fold selectivity, CDK9 (CDK9-CYCLIN T1; Table 26): E (E, <20)"
